Entries after “also recorded” stand apart in the source; their conditions may differ.
Assays:
Type in all cases: in vivo, mouse
[1] = Steady-state retinoid levels and visual chromophore regeneration after 28 days of HPR; conditions: abca4 -/- (knockout line; background strain not stated), mouse, RPE tissue, intraperitoneal, HPR 10 mg/kg, read-out: HPR present within RPE tissue
Description: (§1) Both steady-state retinoid levels and rates of visual chromophore regeneration were evaluated in abca4 −/− mice following a 28-day treatment period with 10 mg/kg HPR. Light-adapted levels of all visual cycle retinoids were reduced by ˜50% compared to control animals receiving only DMSO (FIG. 16A). Although HPR was present within RPE tissue (˜10 μM), the rate of rhodopsin regeneration (FIG. 16B) and removal of bleached photoproduct (Figure 16C) were not affected. The calculated time constant for regeneration of visual chromophore was nearly identical for both DMSO- and HPR-treated mice (0.37 h time constant to fully regenerate visual chromophore, FIG. 16D).
(§2) Panels D-F of FIG. 9 are electrophysiological measurements of rod function (panel D), rod and cone function (panel E) and recovery from photobleaching (panel F).

[2] = test system: abca4 −/− mice; experiment: as above
Description: as §1, §2

[3] = test system: abca4 null mutant mice; experiment: Serum retinol after 28 days of daily HPR (LC/MS, HPLC); conditions: for effect on serum retinol (in words): ABCA4 null mice
Description: ABCA4 null mutant mice were given the indicated dose of HPR in DMSO (i.p.) daily for 28 days (n=4 mice per dosage group). At the end of the study period, blood samples were taken and serum was prepared. Following acetonitrile precipitation of serum proteins, the concentrations of retinol and HPR were determined from the soluble phase by LC/MS (see FIG. 7). Identity of the eluted compounds was confirmed by UV-vis absorption spectroscopy and co-elution of sample peaks with authentic standards.
Analysis of Serum Retinol. Whole blood was collected from tail veins of HPR-treated mice 18 hrs. following the final HPR dose (i.e., at day 28). Serum was obtained from whole blood following centrifugation at 1,500×g, 10 min. Serum proteins were precipitated with the addition of an equivolume of ice-cold acetonitrile and centrifugation (10,000×g, 10 min). An aliquot was removed from the soluble phase and analyzed by HPLC using an Agilent 1100 series capillary liquid chromatograph equipped with a diode-array detector. Chromatography was performed on a Zorbax SB C18 5 μm column (150×0.5 mm) equilibrated with acetonitrile/water/glacial acetic acid (80:18:2, v/v) at a flow rate of 10 μl/min.

[4] = test system: abca4 null mutant mice; experiment: A2E and A2PE-H2 in eyes after chronic treatment (HPLC)
Description: Tissue Extraction. Eye samples were thawed on ice in 1 ml of PBS, pH 7.2 and homogenized by hand using a Duall glass-glass homogenizer. The sample was further homogenized following the addition of 1 ml chlorofomm/methanol (2:1, v/v). The sample was transferred to a boroscilicate tube and lipids were extracted into 4 mls of chloroform. The organic extract was washed with 3 mls PBS, pH 7.2 and the samples were then centrifuged at 3,000×g, 10 min. The choloroform phase was decanted and the aqueous phase was re-extracted with another 4 mls of chloroform. Following centrifugation, the chloroform phases were combined and the samples were taken to dryness under nitrogen gas. Samples residues were resuspended in 100 μl hexane and analyzed by HPLC as described below.
HPLC Analysis. Chromatographic separations were achieved on an Agilent Zorbax Rx-Sil Column (5 μm, 4.6×250 mm) using an Agilent 1100 series liquid chromatograph equipped with fluorescence and diode array detectors. The mobile phase (hexane/2-propanol/ethanol/25 mM KH2PO4, pH 7.0/acetic acid; 485/376/100/50/0.275, v/v) was delivered at 1 ml/min. Sample peak identification was made by comparison to retention time and absorbance spectra of authentic standards. Data are reported as peak fluorescence (L.U.) obtained from the fluorescence detector.
We initiated a one-month study to evaluate the effects of HPR on reduction of A2E and A2E precursors in abca4 null mutant mice. HPR was administered in DMSO (20 mg/kg, ip) to abca4 null mutant mice (BL6/129, aged 2 months) daily for a period of 28 days. Control age/strain matched mice received only the DMSO vehicle. Mice were sampled at 0, 14, and 28 days (n=3 per group), the eyes were enucleated and chloroform-soluble constituents (lipids, retinoids and lipid-retinoid conjugates) were extracted. Mice were sacrificed by cervical dislocation, the eyes were enucleated and individually snap frozen in cryo vials. The sample extracts were then analyzed by HPLC with on-line fluorescence detection. Results from this study show remarkable, early reductions in the A2E precursor, A2PE-H2, see FIG. 4a, and subsequent reductions in A2E, see FIG. 4b. […] A similar study may be undertaken to ascertain effects of HPR treatment on the electroretinographic and morphological phenotypes.
ABCA4 null mutant mice were given the indicated dose of HPR in DMSO or DMSO alone daily for 28 days (n=16 mice per treatment group). At study onset, mice in the 2.5 mg/kg group were 2 months of age, mice in the other treatment groups were 3 months of age. At the indicated times, representative mice were taken from each group (n =4) for analysis of A2E precursor compounds (see FIG. 10, A2PE-H2, panels A, C and E) and A2E (see FIG. 10, panels B, D and F). Eyes were enucleated, hemisected and lipid soluble components were extracted from the posterior pole by chloroform/methanol-water phase partitioning. Sample extracts were analyzed by LC. Identity of the eluted compounds was confirmed by UV-vis absorption spectroscopy and co-elution of sample peaks with authentic standards. Note: limitations in appropriately age and strain-matched mice in the 10 mg/kg group prevented analysis at the 14-day interval.
Extraction and Analysis of Retinoids and A2E. Steady-state levels of retinoids and A2E in eyecups of ABCA4−/− mice were determined following daily administration (28 days) of HPR (FIG. 12). Mice were sacrificed, the eyes enucleated, and the posterior portion of each eye was used for extraction of retinoids or A2E. Methodologies used for extraction of retinoids and A2E from eye tissue and HPLC analysis techniques have been described. See, e.g., Mata N L, Weng J, Travis G H. Biosynthesis of a major lipofuscin fluorophore in mice and humans with ABCR-mediated retinal and macular degeneration. Proc Natl Acad Sci USA. 2000; 97:7154-7159; Weng J, et al.; Cell. 1999;98:13-23; Mata N L, et al.; Invest. Ophthalmol. Visual Sci. 2001; 42:1685-1690. […]

SMILES: CC1=C(/C=C/C(C)=C/C=C/C(C)=C/C(=O)Nc2ccc(O)cc2)C(C)(C)CCC1 [HPR, N-(4-hydroxyphenyl)retinamide]
- concentration at 28 days [1]: ~10 µM
- removal of bleached photoproduct ([2]; HPR 10 mg/kg): not affected
- regeneration of visual chromophore (rate of rhodopsin regeneration) ([2]; HPR 10 mg/kg daily): not affected; also recorded: does not affect; also recorded: normal
- calculated time constant to fully regenerate visual chromophore ([2]; HPR 10 mg/kg, nearly identical for DMSO): 0.37 h
- effect on serum retinol (in words) [3]: profound reductions
- effect on serum retinol (in words) ([3]; listed as Fenretinide): potently and reversibly reduces
- effect on serum retinol (in words) ([3]; listed as fenretinide): lowered serum retinol levels
- serum retinol reduction ([3]; HPR 2.5 mg/kg daily, 28 days): 20%
- reduction of RBP-retinol in the circulation ([3]; HPR 10 mg/kg daily, 28 days): ~50%
- reduction in A2PE-H2 ([4]; HPR 2.5 mg/kg daily, 28 days, 2-month old mice): ~47%
- less A2E accumulated compared to DMSO littermates ([4]; HPR 10 mg/kg daily, 28 days): ~50%
- reduction of A2E ([4]; HPR 20 mg/kg ip daily, 28 days): 55%
- reduction of A2PE-H2 ([4]; HPR 20 mg/kg ip daily, 28 days): 70%
- accumulation of A2E and lipofuscin autofluorescence in the RPE (in words) ([4]; mouse, in vivo): arrested accumulation
